Results on ten molecules are retold here after PubChem BioAssay (NCI).

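Exposure lasted 48 hours, with cells grown in 96-well plates and compounds tested at five concentrations. GI50 is the concentration that inhibits growth by half. The concentration for full growth arrest is given as TGI.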

Among the test systems are SK-OV-3 ovarian; UO-31 renal; SF-295 CNS; 786-0 renal; M14 melanoma; RPMI-8226 leukemia; SF-539 CNS; PC-3 prostate; NCI-H226 lung; NCI-H23 lung.
What all share (test): growth of human tumour cells (NCI), 48 h

For the molecule `O=C(NN1C(=O)CSC1c1ccc(F)cc1)C(O)c1ccccc1` (stereo not given), the GI50 in the test on SK-OV-3 ovarian is above 100 µM; in the test with UO-31 renal, above 100 µM; in the test on SF-295 CNS, above 100 µM; in the test on 786-0 renal it was above 100 µM; with M14 melanoma, above 100 µM; in the test with RPMI-8226 leukemia, 44.4 µM. The GI50 was above 100 µM in the test on SF-539 CNS, 76.8 µM with PC-3 prostate and above 100 µM with NCI-H226 lung. The TGI with SK-OV-3 ovarian, in the test on UO-31 renal, with SF-295 CNS, with 786-0 renal, with M14 melanoma and with RPMI-8226 leukemia was above 100 µM each time. The TGI in the test with SF-539 CNS, in the test with PC-3 prostate and in the test on NCI-H226 lung was above 100 µM in each case.
Regarding `O=C1c2ccccc2C(=O)N1C1(C(=O)NC2(C(=O)O)CCCC2)CCCC1`, the TGI with SK-OV-3 ovarian, in the test with UO-31 renal, with SF-295 CNS, in the test on 786-0 renal, in the test with M14 melanoma and in the test with RPMI-8226 leukemia was above 100 µM each time. Further, the TGI in the test on PC-3 prostate, with NCI-H23 lung and in the test on NCI-H226 lung was above 100 µM throughout.
Regarding `COc1cc2c(cc1-c1coc3cc(OCC=C(C)C)ccc3c1=O)OCO2`, the TGI with SK-OV-3 ovarian is above 100 µM; with UO-31 renal it was above 100 µM; with SF-295 CNS it was above 100 µM; with 786-0 renal it was 61.8 µM; in the test on M14 melanoma it was above 100 µM; in the test with RPMI-8226 leukemia, 66 µM. Further, the TGI in the test with SF-539 CNS, with PC-3 prostate and with NCI-H23 lung was above 100 µM each time.
In the case of `CC(=O)O.CC(=O)O.CC(=O)O.CC(=O)O.[Rh].[Rh]`, the GI50 in the test with SK-OV-3 ovarian is above 100 µM; with UO-31 renal it was 20.6 µM; in the test with 786-0 renal it was 34.8 µM; with M14 melanoma it was 27.8 µM; with RPMI-8226 leukemia it was 19.4 µM; in the test with SF-539 CNS it was 26.4 µM. Besides, the GI50 in the test on PC-3 prostate is 27.1 µM; in the test with NCI-H23 lung, 32.1 µM; in the test with NCI-H226 lung, 22 µM. The TGI was above 100 µM in the test with SK-OV-3 ovarian; 59 µM in the test with UO-31 renal; above 100 µM in the test with 786-0 renal; 82.5 µM with M14 melanoma; 50.8 µM in the test with RPMI-8226 leukemia; 88.4 µM in the test with SF-539 CNS. Besides, the TGI in the test on PC-3 prostate was 91 µM; with NCI-H23 lung, above 100 µM; in the test on NCI-H226 lung it was 99.2 µM.
As to `COc1ccc(-c2ccc(/C=N/n3c(COc4ccccc4Cl)n[nH]c3=S)o2)c([N+](=O)[O-])c1`, the GI50 in the test on SK-OV-3 ovarian is 35.4 µM; in the test with UO-31 renal, 31.7 µM; with SF-295 CNS, 22.6 µM; with 786-0 renal, 28.4 µM; with M14 melanoma, 26.6 µM; with RPMI-8226 leukemia, 24.9 µM. The GI50 with PC-3 prostate was 23.6 µM; in the test with NCI-H23 lung, 18.5 µM; with NCI-H226 lung, 20.1 µM. The TGI was above 100 µM in the test on SK-OV-3 ovarian; above 100 µM in the test on UO-31 renal; 56.5 µM with SF-295 CNS; above 100 µM in the test on 786-0 renal; 79.1 µM with M14 melanoma; 92.9 µM in the test with RPMI-8226 leukemia. The TGI was found to be 79.4 µM with PC-3 prostate, 41.8 µM in the test with NCI-H23 lung and 50.9 µM in the test on NCI-H226 lung.
Turning to `CCN(C(=O)CN1CCN(c2cc3c(cc2F)c(=O)c(C(=O)O)cn3CC)CC1)c1nc(-c2ccccc2)cs1`, the GI50 in the test on UO-31 renal was 0.266 µM; in the test with SF-295 CNS, 0.235 µM; with 786-0 renal, 0.384 µM; in the test on M14 melanoma, 0.363 µM; in the test with RPMI-8226 leukemia, 0.344 µM; in the test with SF-539 CNS, 0.337 µM. Further, the GI50 in the test with PC-3 prostate was 0.362 µM; with NCI-H23 lung, 0.315 µM; with NCI-H226 lung, 0.477 µM. The TGI with UO-31 renal is above 100 µM; with SF-295 CNS it was 0.746 µM; with 786-0 renal, above 100 µM; in the test on M14 melanoma, above 100 µM; with RPMI-8226 leukemia, above 100 µM; with SF-539 CNS, above 100 µM. The TGI in the test on PC-3 prostate, in the test on NCI-H23 lung and with NCI-H226 lung was above 100 µM each time.
Consider `NCCC(=O)NC(Cc1cnc[nH]1)C(=O)O` (stereo not given), for which the TGI with UO-31 renal, in the test with SF-295 CNS, in the test on 786-0 renal, in the test on M14 melanoma, with RPMI-8226 leukemia and in the test on SF-539 CNS was above 100 µM throughout. Further, the TGI with PC-3 prostate, in the test on NCI-H23 lung and in the test with NCI-H226 lung was above 100 µM each time.
Consider `CCOC(=O)C1=C(C)N2C(=NC3=C(CCC/C3=C\c3ccc(Cl)cc3)C2c2ccc(Cl)cc2)S1` (stereo not given), for which the GI50 in the test on SK-OV-3 ovarian was 6.68 µM; in the test on UO-31 renal it was 1.7 µM; with SF-295 CNS, 2.85 µM; in the test with 786-0 renal, 2 µM; in the test with RPMI-8226 leukemia, 1.22 µM; with SF-539 CNS, 3.88 µM. In addition, the GI50 in the test on PC-3 prostate is 2.77 µM; in the test with NCI-H23 lung, 2.03 µM; in the test with NCI-H226 lung it was 3.04 µM. The TGI in the test with SK-OV-3 ovarian is above 100 µM; in the test with UO-31 renal, 3.85 µM; in the test on SF-295 CNS, 8.76 µM; in the test with 786-0 renal it was 4.74 µM; with RPMI-8226 leukemia, 4.04 µM; in the test on SF-539 CNS, above 100 µM. The values for the TGI with PC-3 prostate, in the test with NCI-H23 lung and with NCI-H226 lung were above 100 µM, 5.26 µM and 8.8 µM, respectively.
Turning to `CC1=C(Cl)C[C@@H](/C(C)=C\Cl)O[C@@]1(O)C(Br)Br`, the TGI in the test with SK-OV-3 ovarian was above 100 µM; in the test on UO-31 renal it was 72.7 µM; with SF-295 CNS, above 100 µM; with 786-0 renal it was above 100 µM; in the test on M14 melanoma it was 67.7 µM; with RPMI-8226 leukemia, 65.8 µM. The TGI in the test on SF-539 CNS, with PC-3 prostate and in the test with NCI-H23 lung was above 100 µM in each case.
As to `CCN(CC)C(=O)COc1cc2c(O)c3c(O)c(C)c4c(c13)C(=O)C(C)(OC=CC(OC)C(C)C(OC(C)=O)C(C)C(O)C(C)C(O)C(C)C=CC=C(C)C(=O)N2)O4` (stereo not given), the TGI in the test with SK-OV-3 ovarian, with UO-31 renal, in the test on SF-295 CNS, in the test on 786-0 renal, in the test on M14 melanoma and in the test with RPMI-8226 leukemia was above 100 µM throughout. The TGI in the test on PC-3 prostate, with NCI-H23 lung and in the test with NCI-H226 lung was above 100 µM throughout.
